Source: PubChem BioAssay AID330 (DTP/NCI, 2004)
“And” between values parts separate entries of the source, which are not always exact repeats. Identical values can stand only once. Toxic doses and inconclusive results are not listed. The calls were made as follows: active = survival T/C of 150% or more; inactive = T/C below 125% in these data.

System: P388 leukemia ip, CD2F1 mice, survival T/C
Assay: NCI In Vivo Anticancer Drug Screen. Data for tumor model P388 Leukemia (intraperitoneal) in CD2F1 (CDF1) mice
Settings: endpoint: median survival time, higher = longer survival
Method in brief: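 Mice carrying the transplanted tumor received test compound or vehicle. Survival was recorded in each group, and the value is the treated-group measurement divided by that of the vehicle-treated control group.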

[1] = dose: 50.0 mg/kg/injection, schedule: Q01DX005 (ip), vehicle: Klucel (hydroxypropylcellulose) (HPC)
[2] = dose: 100.0 mg/kg/injection, schedule: Q01DX005 (ip), vehicle: Klucel (hydroxypropylcellulose) (HPC)
[3] = dose: 200.0 mg/kg/injection, schedule: Q01DX005 (ip), vehicle: Klucel (hydroxypropylcellulose) (HPC)
[4] = dose: 200.0 mg/kg/injection, schedule: Q01DX001 (ip), vehicle: saline
[5] = dose: 400.0 mg/kg/injection, schedule: Q01DX001 (ip), vehicle: saline
[6] = dose: 50.0 mg/kg/injection, schedule: Q01DX005 (ip), vehicle: saline with Tween-80
[7] = dose: 100.0 mg/kg/injection, schedule: Q01DX005 (ip), vehicle: saline with Tween-80
[8] = dose: 200.0 mg/kg/injection, schedule: Q01DX005 (ip), vehicle: saline with Tween-80
[9] = dose: 50.0 mg/kg/injection, schedule: Q01DX001 (ip), vehicle: Klucel (hydroxypropylcellulose) (HPC)
[10] = dose: 100.0 mg/kg/injection, schedule: Q01DX001 (ip), vehicle: Klucel (hydroxypropylcellulose) (HPC)
[11] = dose: 200.0 mg/kg/injection, schedule: Q01DX001 (ip), vehicle: Klucel (hydroxypropylcellulose) (HPC)

Measured: T/C

COc1ccc2c(C)cc(N/N=C\c3ccnc4ccccc34)nc2c1
inactive: [1] 91 % of control | [2] 92 % of control | [3] 90 % of control

O=C1CN2CCN3CC(=O)NC(=O)[C@H]3[C@H]2C(=O)N1
inactive: dose: 60.0 mg/kg/injection, schedule: Q01DX005 (ip), vehicle: saline with Tween-80 101 % of control | dose: 120.0 mg/kg/injection, schedule: Q01DX005 (ip), vehicle: saline with Tween-80 101 % of control | dose: 240.0 mg/kg/injection, schedule: Q01DX005 (ip), vehicle: saline with Tween-80 93 % of control

c1nc2c3c4c(sc3ncn2n1)CCCC4
inactive: [1] 98 % of control | [2] 106 % of control | [3] 91 % of control

Cc1c(N(C)c2ccccc2)c(=S)n(C)c(=S)n1C
inactive: [1] 89 % of control | [2] 100 % of control | [3] 90 % of control

O=C1NNC(=O)C1C(=O)Nc1ccccc1
inactive: dose: 0.93 mg/kg/injection, schedule: Q01DX005 (ip), vehicle: Klucel (hydroxypropylcellulose) (HPC) 100 % of control | dose: 1.87 mg/kg/injection, schedule: Q01DX005 (ip), vehicle: Klucel (hydroxypropylcellulose) (HPC) 103 % of control | dose: 3.75 mg/kg/injection, schedule: Q01DX005 (ip), vehicle: Klucel (hydroxypropylcellulose) (HPC) 100 % of control | dose: 15.0 mg/kg/injection, schedule: Q01DX005 (ip), vehicle: Klucel (hydroxypropylcellulose) (HPC) 113 % of control

COc1ccc(CCNS(=O)(=O)c2c(C)c(C)c(C)c(C)c2C)cc1OC
inactive: [1] 93 % of control | [2] 88 % of control

O=C(CCl)N1CC2CCC(CC2)C1
inactive: dose: 50.0 mg/kg/injection, schedule: Q01DX009 (ip), vehicle: saline with Tween-80 102 % of control | dose: 100.0 mg/kg/injection, schedule: Q01DX009 (ip), vehicle: saline with Tween-80 91 % of control

CC(C)c1cc(N(C)C)cc(=S)[nH]1
inactive: dose: 50.0 mg/kg/injection, schedule: Q01DX005 (ip), vehicle: saline 104 % of control | dose: 100.0 mg/kg/injection, schedule: Q01DX005 (ip), vehicle: saline 94 % of control | dose: 200.0 mg/kg/injection, schedule: Q01DX005 (ip), vehicle: saline 102 % of control

CC(C)(Oc1ccc(Cl)cc1)C(=O)OCCCC(=O)NC1CC(C)(C)N(O)C(C)(C)C1
inactive: [4] 105 % of control | [5] 115 % of control

[Cl][Sn]1([Cl])[CH2]CCCCCCCCCC[CH2][Sn]([Cl])([Cl])[CH2]CCCCCCCCCC[CH2]1
inactive: [6] 100 % of control | [7] 86 % of control and 96 % of control | [8] 91 % of control

O=C(N/N=C/c1cccc(O)c1O)c1ccccc1
inactive: [6] 104 % of control | [7] 109 % of control | [8] 119 % of control

CC1(Cl)CC(C)(/C=C/Cl)C(Br)CC1Cl (stereo unspecified)
inactive: dose: 41.5 mg/kg/injection, schedule: Q01DX005 (ip), vehicle: Klucel (hydroxypropylcellulose) (HPC) 91 % of control | dose: 83.0 mg/kg/injection, schedule: Q01DX005 (ip), vehicle: Klucel (hydroxypropylcellulose) (HPC) 91 % of control | dose: 166.0 mg/kg/injection, schedule: Q01DX005 (ip), vehicle: Klucel (hydroxypropylcellulose) (HPC) 100 % of control

Cc1nc2c([N+](=O)[O-])c(N(C)C)c([N+](=O)[O-])cc2[nH]1
inactive: dose: 25.0 mg/kg/injection, schedule: Q04DX003 (ip), vehicle: saline with Tween-80 96 % of control | dose: 50.0 mg/kg/injection, schedule: Q04DX003 (ip), vehicle: saline with Tween-80 87 % of control

CC(=O)N(C(C)=O)N1C(=O)C2C3C=CC(C4CC34)C2C1=O (stereo unspecified)
inactive: dose: 50.0 mg/kg/injection, schedule: Q01DX009 (ip), vehicle: Klucel (hydroxypropylcellulose) (HPC) 92 % of control | dose: 100.0 mg/kg/injection, schedule: Q01DX009 (ip), vehicle: Klucel (hydroxypropylcellulose) (HPC) 94 % of control

CC(C(=O)O)C1(C(=O)O)CCCCCC1 (stereo unspecified)
inactive: dose: 100.0 mg/kg/injection, schedule: Q01DX001 (ip), vehicle: saline with Tween-80 100 % of control | dose: 200.0 mg/kg/injection, schedule: Q01DX001 (ip), vehicle: saline with Tween-80 93 % of control | dose: 400.0 mg/kg/injection, schedule: Q01DX001 (ip), vehicle: saline with Tween-80 109 % of control

COc1ccc(C2CC(=O)CC2c2ccc(OC)cc2)cc1 (stereo unspecified)
inactive: [9] 99 % of control | [10] 100 % of control | [11] 100 % of control

CS(=O)(=O)OCC(O)C(O)COS(C)(=O)=O (stereo unspecified)
inactive: [9] 106 % of control | [10] 110 % of control | dose: 100.0 mg/kg/injection, schedule: Q01DX001 (ip), vehicle: saline 100 % of control | dose: 100.0 mg/kg/injection, schedule: Q01DX001 (oral), vehicle: saline 100 % of control | dose: 100.0 mg/kg/injection, schedule: Q01DX009 (oral), vehicle: saline 104 % of control | dose: 100.0 mg/kg/injection, schedule: Q03HX008 (ip), vehicle: saline 100 % of control | dose: 100.0 mg/kg/injection, schedule: Q03HX016 (ip), vehicle: saline 100 % of control | dose: 100.0 mg/kg/injection, schedule: Q03HX024 (ip), vehicle: saline 100 % of control | dose: 100.0 mg/kg/injection, schedule: Q04DX003 (ip), vehicle: saline with Tween-80 109 % of control | dose: 100.0 mg/kg/injection, schedule: Q04DX003 (ip), vehicle: saline 104 % of control | dose: 100.0 mg/kg/injection, schedule: Q08DX002 (ip), vehicle: saline 104 % of control | [11] 110 % of control | [4] 100 % of control | dose: 200.0 mg/kg/injection, schedule: Q01DX001 (oral), vehicle: saline 100 % of control | dose: 200.0 mg/kg/injection, schedule: Q01DX009 (oral), vehicle: saline 104 % of control | dose: 200.0 mg/kg/injection, schedule: Q03HX008 (ip), vehicle: saline 100 % of control | dose: 200.0 mg/kg/injection, schedule: Q03HX016 (ip), vehicle: saline 100 % of control | dose: 200.0 mg/kg/injection, schedule: Q03HX024 (ip), vehicle: saline 100 % of control | dose: 200.0 mg/kg/injection, schedule: Q04DX003 (ip), vehicle: saline with Tween-80 104 % of control | dose: 200.0 mg/kg/injection, schedule: Q04DX003 (ip), vehicle: saline 100 % of control | dose: 200.0 mg/kg/injection, schedule: Q08DX002 (ip), vehicle: saline 104 % of control | [5] 100 % of control | dose: 400.0 mg/kg/injection, schedule: Q01DX001 (oral), vehicle: saline 109 % of control | dose: 400.0 mg/kg/injection, schedule: Q01DX009 (ip), vehicle: saline 90 % of control | dose: 400.0 mg/kg/injection, schedule: Q01DX009 (oral), vehicle: saline 100 % of control | dose: 400.0 mg/kg/injection, schedule: Q03HX008 (ip), vehicle: saline 109 % of control | dose: 400.0 mg/kg/injection, schedule: Q03HX016 (ip), vehicle: saline 100 % of control | dose: 400.0 mg/kg/injection, schedule: Q03HX024 (ip), vehicle: saline 100 % of control | dose: 400.0 mg/kg/injection, schedule: Q04DX003 (ip), vehicle: saline with Tween-80 118 % of control | dose: 400.0 mg/kg/injection, schedule: Q04DX003 (ip), vehicle: saline 104 % of control | dose: 400.0 mg/kg/injection, schedule: Q08DX002 (ip), vehicle: saline 104 % of control | dose: 800.0 mg/kg/injection, schedule: Q01DX001 (ip), vehicle: saline 109 % of control | dose: 800.0 mg/kg/injection, schedule: Q01DX001 (oral), vehicle: saline 100 % of control | dose: 800.0 mg/kg/injection, schedule: Q01DX009 (oral), vehicle: saline 113 % of control | dose: 800.0 mg/kg/injection, schedule: Q03HX008 (ip), vehicle: saline 109 % of control | dose: 800.0 mg/kg/injection, schedule: Q03HX016 (ip), vehicle: saline 100 % of control | dose: 800.0 mg/kg/injection, schedule: Q03HX024 (ip), vehicle: saline 100 % of control | dose: 800.0 mg/kg/injection, schedule: Q04DX003 (ip), vehicle: saline 114 % of control | dose: 800.0 mg/kg/injection, schedule: Q08DX002 (ip), vehicle: saline 104 % of control

Cc1nc2[nH]cc(-c3ccccc3)c2c(=N)n1-c1ccccc1
inactive: dose: 12.5 mg/kg/injection, schedule: Q01DX005 (ip), vehicle: Klucel (hydroxypropylcellulose) (HPC) 102 % of control | dose: 25.0 mg/kg/injection, schedule: Q01DX005 (ip), vehicle: Klucel (hydroxypropylcellulose) (HPC) 106 % of control | [1] 100 % of control and 104 % of control
